These are literature values, as cited in US4925831A, “Aminoalkyl naphthalenediols as host resistance enhancers against viral infection” (priority 1987, dated 1990).

The test system of one data set is AIDS or ARC patients. To be noted: result in words.
Experiment in data set [1]: not given
This is another data set of the same source.

For data set [2], the system named is HIV reverse transcriptase. To be noted: result in words.
The next data set deals with HIV. To be noted: result in words.
The conditions of data set [3]: in vivo.

“Also recorded” adds a separate entry of the source. Read-outs that look alike come from different tables or passages of the source.

For the compound `CO[C@H]1/C=C/O[C@@]2(C)Oc3c(C)c(O)c4c(c3C2=O)C2=NC3(CCN(CC(C)C)CC3)NC2=C(NC(=O)/C(C)=C\C=C\[C@H](C)[C@H](O)[C@@H](C)[C@@H](O)[C@@H](C)[C@H](OC(C)=O)[C@@H]1C)C4=O` [Ansamycin, rifabutin], the clinical efficacy result with AIDS or ARC patients was “some efficacy in treating AIDS patients with an opportunistic infection caused by the bacterium Mycobacterium aviumintracellulare”.

Regarding `Cc1cn([C@H]2C[C@H](N=[N+]=[N-])[C@@H](CO)O2)c(=O)[nH]c1=O` [Azidothymidine, 3'-azido-3'-deoxythymidine], in the data set on AIDS or ARC patients, the clinical efficacy entry is listed as “promise in prolonging lives of patients with AIDS or AIDS-related complex (ARC)”. For the same compound, the “half-life in the body” value (in vivo) is recorded as “relatively short half-life in the body”. In addition, where the note is “oral”, the oral absorption result is given as “Well absorbed orally”. For the same compound, the “adverse / toxic effects, tolerability” value in data set [1] (clinical, result in words) is “some toxicity, with anemia and headaches”; in data set [1] (clinical, result in words, listed as AZT), “virtually no toxic effects”.

As to `CC(C)(N1CC1C#N)N1CC1C(N)=O` (stereo not shown) [Azimexon], the clinical efficacy result with AIDS or ARC patients was “improvements in symptoms and immune function in patients with ARC but not AIDS”. Also, the “adverse / toxic effects, tolerability” value in data set [1] (clinical, result in words) is on record as “only toxic effect was mild hemolysis”.

For `CC(C)(S)[C@@H](N)C(=O)O` [D-Penicillamine, 3-mercapto-D-valine], the clinical efficacy entry in the data set on AIDS or ARC patients is listed as “Inhibits HIV reproduction in humans; also recorded: suppressed the virus”. Also, the “adverse / toxic effects, tolerability” value in data set [1] (human, in vivo) is on record as “temporarily depressed T cell levels in 13 AIDS patients”.

On to `O=C(O)P(=O)(O)O` [Foscarnet, trisodium phosphonoformate], for which the “inhibition of HIV reverse transcriptase” value in data set [2] is given as “Inhibits HIV reverse transcriptase activity in vitro at levels pharmacologically acceptable in vivo”. The “adverse / toxic effects, tolerability” value in data set [1] (human, in vivo) is on record as “serious side effects”.

As to `CC(=O)Nc1ccc(C(=O)O)cc1.CC(=O)Nc1ccc(C(=O)O)cc1.CC(=O)Nc1ccc(C(=O)O)cc1.CC(O)CN(C)C.CC(O)CN(C)C.CC(O)CN(C)C.O=c1[nH]cnc2c1ncn2[C@@H]1O[C@H](CO)[C@@H](O)[C@H]1O` [Inosine pranobex], the clinical efficacy result with AIDS or ARC patients is recorded as “improve immune function in ARC patients”.

For `NC(=O)c1ncn([C@@H]2O[C@H](CO)[C@@H](O)[C@H]2O)n1` [Ribavirin, 1β-D-ribofuranosyl-1,2,4-triazole-3-carboxamide], the clinical efficacy entry in the data set on AIDS or ARC patients was “inhibited viral replication and improved immune function in AIDS patients”.

In the case of `Cc1ccc(C(=O)Nc2ccc(S(=O)(=O)O)c3cc(S(=O)(=O)O)cc(S(=O)(=O)O)c23)cc1NC(=O)c1cccc(NC(=O)Nc2cccc(C(=O)Nc3cc(C(=O)Nc4ccc(S(=O)(=O)O)c5cc(S(=O)(=O)O)cc(S(=O)(=O)O)c45)ccc3C)c2)c1` [Suramin], the clinical efficacy result in the data set on AIDS or ARC patients was “little or no evidence of clinical improvement or immunologic recovery”. In addition, the “inhibition of HIV reverse transcriptase” value in data set [2] was “Potent inhibitor of HIV reverse transcriptase”.

Turning to “ammonium 21-tungsto-9-antimoniate [HPA-23]”, the clinical efficacy result in the data set with AIDS or ARC patients is reported as “no therapeutic benefit has been documented in AIDS patients”. In the data set with HIV, the “effect on HIV growth / infectivity” value is recorded as “some tendency to check the growth of HIV”.

As to krestin, the toxic side effects result in data set [3] is given as “undesirable toxic side effects, such as granulomatous inflammation”.

Regarding lentinan, the toxic side effects entry in data set [3] is reported as “undesirable toxic side effects, such as granulomatous inflammation”.

In the case of α-Interferon, the clinical efficacy result with AIDS or ARC patients is “induced tumor regression in some AIDS-related Kaposi's sarcoma cases”. In the data set on HIV, the “effect on HIV growth / infectivity” value is “Checks the growth of HIV in vitro”.
